Data from patent US9133260B2 (priority 2005, dated 2015).
Entries after “also recorded” stand apart in the source; their conditions may differ. Where two headings read alike, the source gives them in different places. Ends that are not written are not given here.

How the values were obtained:
[1] = cited from earlier work; for inhibition of gastric emptying, in words: at doses of 100 μg; for EC(50) inhibition of gastric emptying: subcutaneous, conscious rats, rat weight ~200 g
[2] = assay type: in vivo, NIH/Swiss mice; details: for acute food intake, in words: IP at t=0, 30, 60, 120 min
Method: Peptide was injected IP at t=0.
Peptide was injected IP at t=0. […] Peptide was injected IP at t=0.

relevant receptors = assay: Cyclase, table of GIP/amylin-sCT hybrids; assay type: biochemical; details: receptor and unit inferred
[3] = Intravenous glucose tolerance test (IVGTT assay); assay type: in vivo, rats; details: 100 pmol/kg/min infusion; for insulinotropic response to an intravenous glucose challenge: anesthetized HSD male rats
Method: All three analogs produced a significant lowering of the glucose excursion in response to the glucose challenge (data not shown). As described, fed, isoflurane anesthetized HSD male rats were intubated and cannulated via femoral artery and vein and allowed to stabilize for 1 hour. […] At t=0, an i.v. bolus of 5.7 mmol/kg D-glucose was administered over 2 minutes. Samples for glucose measurement and insulin concentrations were taken at various time points before and after (0 to 90 minutes) glucose infusion.

[4] = Basal glucose lowering in 2-hour fasted NIH/Swiss mice; assay type: in vivo; details: for basal glucose lowering (% maximal decrease): mouse, in vivo
Method: (§1) In FIG. 3A, bars represent mean±sd, n=6-10. Peptide was injected IP at t=−5 into overnight-fasted NIH/Swiss mice. Gavage (1.5 g/kg) was given at t=0. Sample was taken at t=30 min. […] In FIG. 3B, points represent mean±sem, n=8-15. Peptide was injected IP at t=0 immediately following baseline sample into 2-hour fasted NIH/Swiss mice. Samples were taken at t=60, 120, and 180 minutes. […] Compound G has both an N-terminal modification providing DPP-IV resitance and a C-terminal Trp-cage shield.
Points represent mean±sem. Peptide was injected IP at t=0 immediately following baseline sample into 2-hour fasted NIH/Swiss mice. Samples were taken at t=60, 120, 180 and 240 minutes.
FIGS. 8A and 8b provide a result of one such study. Points represent mean±sem. Peptide was injected IP at t=0 immediately following baseline sample into 2-hour fasted NIH/Swiss mice. Samples were taken at t=60, 120, 180 and 240 minutes.

[5] = test system: cardiomyocyte Gs-coupled receptors; assay: cAMP production in isolated neonatal cardiomyocytes (HTRF); assay type: cell-based, rat
Method: Activation of cardiomyocyte Gs- and Gi-coupled receptors was determined as a measure of cAMP production.
Cell Isolation. Neonatal cardiomyocytes were isolated using a commercially available system. […] Sprague Dawley neonatal rats (1-2 days old) were decapitated and the beating heart dissected out into digestion buffer (Cellutron D1 buffer) to dissociate cells. […] The resuspended cells incubated in buffer (Cellutron D3 buffer) for sufficient time to allow optimal dispersion and minimize the need for pipetting to break up clumps. Cells released from the first 2 digestions were discarded since a significant portion of these is red blood cells. Resuspended cells were filtered and allowed to pre-plate for 1 hour on plastic in an incubator in NS media (Cellutron, NJ) in order to remove fibroblasts. After 1 hour of pre-plating, floating cells are removed and the flask rinsed with NS media. The floating cells and the cells in the rinse media were combined and counted. Residual red blood cells, which are smaller that the cardiac myocytes, were not counted.
Cell Plating. […] At Day 1, the NS media was replaced with fresh NS media.
cAMP Assay. […] Dose response was determined.
For Gs assays the positive control was 10 uM forskolin and negative control was buffer. For Gi assays the positive control was buffer and the negative control was 10 uM forskolin.

[6] = Oral glucose tolerance test (OGTT); assay type: in vivo, NIH/Swiss mice; details: decrease in the OGTT assay
Method: as §1
In FIG. 13B bars represent mean+/−sd. Peptide was injected IP at t=−5 minutes into 4-hour fasted NIH/Swiss female mice. Gavage (1.5 g/kg) was given at t=0. […] In FIG. 17 points represent mean+/−sem. Peptide was injected IP at t=) immediatley following baseline sample into 2-hour fasted NIH/Swiss mice. Samples were taken at t=60, t=120 and t=180. […] In one embodiment for each of these GIP hybrids a Gly linker is used, e.g. GlyGlyGly.

[7] = Circulatory system effects in conscious rats by telemetry; assay type: in vivo; details: 80 nmol/kg intravenous
Method: The experiments were performed during the light cycle. Telemetry allows for real-time hemodynamic readings including arterial blood pressure, heart rate and arterial dP/dt, via an implanted radio transmitter in conscious, non-anesthetized, unrestrained rats. […] Remote intravenous dosing was achieved through in-dwelling vascular access ports (Access Technologies (Skokie, Ill.). The port is secured to the underlying muscle just below the skin between the scapulae. The catheter resides in the jugular vein. Data were collected for up to 60 minutes following injection.

[8] = Glucose lowering in diabetic db/db mice; assay type: in vivo; details: IP; GIP at a 10 fold higher dose
Method: Peptide was injected IP at t=0 immediately following baseline sample into 2-hour fasted db/db mice.

[9] = Body weight in diet-induced-obesity (DIO) mice; assay type: in vivo, C57BL/6 mice; details: for body weight change in diet-induced-obese mice: infused via osmotic pump for 2 weeks

Substance: PACAP38: pituitary adenylate cyclase activating peptide (PACAP38) (HSDGIFTDSYSRYRKQMAVKKYLAAVLGKRYKQRVKNK-NH2; ends and bridges not checked; UniProt P18509 132-169, looked up)
- inhibition of gastric emptying, in words [1]: weakly active or inactive

Substance: Secretin: gut peptide hormone secretin
- EC(50) inhibition of gastric emptying [1]: 1.87 µg

Substance: KCNTATCATQRLANFLVRSSNNLGPVLPPTNVGSNTY-NH2 [Rat Amylin]
- acute food intake, in words [2]: significant decrease in food intake within 30 min
- 60 min ED50 ([2]; mouse food intake at 60 min): 9 nmol/kg
- EC(50) inhibition of gastric emptying [1]: 0.18 µg

Substance: YAEGTFISDYSIAMDKIHQQDFVNWLLAQKPSSGAPPPS [Compound 1]
- EC50 (relevant receptors): 519 nM

Substance: Y(D-Ala)EGTFISDYSIAMDKIHQQDFVNWLLAQKGKKNDWKHNITQ-OH [Compound 0601GIP4042]
- insulinotropic response to an intravenous glucose challenge [3]: significant enhancement of the insulinotropic response
- basal glucose lowering (% maximal decrease) [4]: −11%

Substance: neuropeptide Y: neuropeptide Y
- inhibition of gastric emptying, in words [1]: weakly active or inactive

Substance: HGEGAFTSDLSKQLEEEAVRLFIEFLKN-NH2 [Exendin-4 (1-28) [Ala5, Leu14, Phe25]]
- 60 min ED50 ([2]; mouse food intake at 60 min): 13 nmol/kg

Substance: insulin: insulin (tested with plasma glucose maintained constant)
- inhibition of gastric emptying, in words [1]: weakly active or inactive

Substance: HAEGTFTSDVSSYLEGQAAKEFIAWLVKGR-NH2 [GLP-1]
- EC(50) inhibition of gastric emptying [1]: 1.82 µg
- cAMP activity in cardiomyocytes, in words [5]: very low to no significant activity

Substance: YAEGTFISDYSIAMDKIHQQDFVNWLLAQKGKKNDWKHNITQ-OH [GIP]
- OGTT response [6]: −10%
- insulin levels prior to the glucose challenge [3]: significant rise in insulin levels
- insulinotropic response to an intravenous glucose challenge [3]: significant enhancement of the insulinotropic response
- acute food intake, in words [2]: did not acutely inhibit food intake
- dP/dt [7]: increased dP/dt similarly
- heart rate [7]: chronotropic (heart rate elevating) effect
- mean arterial pressure [7]: had no effect
- glucose lowering in diabetic db/db mice, in words [8]: modest and wanes over time
- inhibition of gastric emptying, in words [1]: weakly active or inactive
- body weight change in diet-induced-obese mice [9]: had no effect on body weight change

Substance: DY(SO3) MGWMDF-NH2 [CCK-8]
- 60 min ED50 ([2]; mouse, in vivo): 26 nmol/kg
- EC(50) inhibition of gastric emptying [1]: 2.93 µg

Substance: KCNTATCATQRLANFLVHSSNNFGAILSSTNVGSNTY [Human amylin]
- EC(50) inhibition of gastric emptying [1]: 0.15 µg

Substance: vasoactive intestinal peptide: vasoactive intestinal peptide (VIP) (HSDAVFTDNYTRLRKQMAVKKYLNSILN; ends and bridges not checked; UniProt P01282 125-152, looked up)
- inhibition of gastric emptying, in words [1]: weakly active or inactive

Substance: Gastrin releasing peptide: gastrin releasing peptide (VPLPAGGGTVLTKMYPRGNHWAVGHLM-NH2; ends and bridges not checked; UniProt P07492 24-50, looked up)
- EC(50) inhibition of gastric emptying [1]: 28.5 µg

Substance: Rat calcitonin: rat calcitonin, peptide compared for inhibition of gastric emptying (CGNLSTCMLGTYTQDLNKFHTFPQTSIGVGAP; ends and bridges not checked; cysteine pairing not given here; UniProt P01257 85-116, looked up)
- EC(50) inhibition of gastric emptying [1]: 0.64 µg

Substance: glucagon: peptide hormone glucagon
- inhibition of gastric emptying, in words [1]: weakly active or inactive

Substance: CSNLSTCVLGKLSQELHKLQTYPRTNTGSGTP [Salmon calcitonin]
- EC(50) inhibition of gastric emptying [1]: 0.19 µg

Substance: YaEGTFISDYSIAMDKIHQQDFVNWLLAQKPSSGAPPPS-NH2 [Compound 0601GIP3794]
- OGTT response [6]: −21%
- insulin levels prior to the glucose challenge [3]: significant rise in insulin levels
- insulinotropic response to an intravenous glucose challenge [3]: significant enhancement of the insulinotropic response
- acute food intake, in words [2]: did not acutely inhibit food intake
- dP/dt [7]: increased dP/dt similarly
- heart rate [7]: transient relative to GIP
- mean arterial pressure [7]: decreased mean arterial pressure
- systolic and diastolic pressures [7]: sustained lowering of systolic and diastolic pressures
- glucose lowering in diabetic db/db mice, in words [8]: pronounced and long-acting effect in lowering glucose
- body weight change in diet-induced-obese mice [9]: without a concomitant reduction in body weight
- body composition ([9]; mouse, in vivo): slight decrease in percentage body fat with an increase in body protein
- glucose lowering in normal NIH/Swiss mice, in words ([4]; IP, samples 60-240 min, listed as Compound G): significantly more efficacious than full length GIP; also recorded: gradually increasing activity that peaks at t=120 min
- basal glucose lowering (% maximal decrease) [4]: −20%
- EC50 ([5]; experiment of FIGS. 18A/18B, read-out: EC50, cAMP production in cardiomyocytes): 11.7 nM
- EC50 ([5]; from three independent experiments, read-out: EC50, cardiomyocyte Gs-coupled receptor activation): 29.8 nM

Substance: Rat CGRP: rat calcitonin gene related peptide (SCNTATCVTHRLAGLLSRSGGVVKDNFVPTNVGSEAF; ends and bridges not checked; cysteine pairing not given here; UniProt P01256 83-119, looked up)
- EC(50) inhibition of gastric emptying [1]: 1.62 µg

Substance: adrenomedullin: amylin family peptide hormone adrenomedullin (YRQSMNNFQGLRSFGCRFGTCTVQKLAHQIYQFTDKDKDNVAPRSKISPQGY; ends and bridges not checked; cysteine pairing not given here; UniProt P35318 95-146, looked up)
- inhibition of gastric emptying, in words [1]: weakly active or inactive
